Species on record: Rattus norvegicus
Assay: Open TG-GATES - Regimen: Single
Type: toxicity, organism-based, Sprague-Dawley
Parameters: regimen Single, gender Male, age 6 weeks
Conditions: in vivo, po, 60 mg/kg, route gavage, dose level Low; for APTT / Bas / Eos / Fbg / Hb / Ht / Lym / MCH / MCHC / MCV / Mono / Neu / PT / Plat / RBC / Ret / WBC: tissue Blood; for KIDNEY_L / KIDNEY_R / KIDNEY_TOTAL: tissue Kidney; for LIVER: tissue Liver; for A/G / ALP / ALT / AST / BUN / CRE / Ca / Cl / DBIL / GLC / IP / K / LDH / Na / PL / RALB / TBIL / TC / TG / TP / gamma-GTP: tissue Plasma

## C[C@](N)(Cc1ccc(O)c(O)c1)C(=O)O [METHYLDOPA]
3 h
  TERMINAL_BW: 185.6 g
  APTT: 17.5 s
  Bas: 0%
  Eos: 0.6%
  Fbg: 265.2 mg/dL
  Hb: 12.9 g/dL
  Ht: 38.4%
  Lym: 79%
  MCH: 21.9 pg
  MCHC: 33.5%
  MCV: 65.4 fL
  Mono: 3.2%
  Neu: 16.6%
  PT: 12.5 s
  Plat: 123.5 x10_4/uL
  RBC: 587 x10_4/ul
  Ret: 10.7%
  WBC: 81.1 x10_2/uL
  KIDNEY_L: 0.8 g
  KIDNEY_R: 0.8 g
  KIDNEY_TOTAL: 1.6 g
  LIVER: 7.8 g
  A/G: 0.9
  ALP: 1439.4 IU/L
  ALT: 54.2 IU/L
  AST: 80 IU/L
  BUN: 9 mg/dL
  CRE: 0.1 mg/dL
  Ca: 11.5 mg/dL
  Cl: 107.2 meq/L
  DBIL: 0.02 mg/dL
  GLC: 186 mg/dL
  IP: 10.1 mg/dL
  K: 4.4 meq/L
  LDH: 60.4 IU/L
  Na: 143.8 meq/L
  PL: 142.8 mg/dL
  RALB: 2.6 g/dL
  TBIL: 0.078 mg/dL
  TC: 82.2 mg/dL
  TG: 70.2 mg/dL
  TP: 5.5 g/dL
  gamma-GTP: 1.4 IU/L
6 h
  TERMINAL_BW: 189.2 g
  APTT: 16.7 s
  Bas: 0%
  Eos: 1%
  Fbg: 250.4 mg/dL
  Hb: 13 g/dL
  Ht: 38.6%
  Lym: 78.8%
  MCH: 21.7 pg
  MCHC: 33.6%
  MCV: 64.8 fL
  Mono: 3.2%
  Neu: 16.2%
  PT: 12.4 s
  Plat: 117 x10_4/uL
  RBC: 596.4 x10_4/ul
  Ret: 10.3%
  WBC: 64 x10_2/uL
  KIDNEY_L: 0.8 g
  KIDNEY_R: 0.8 g
  KIDNEY_TOTAL: 1.6 g
  LIVER: 7.6 g
  A/G: 0.9
  ALP: 1752.4 IU/L
  ALT: 50.2 IU/L
  AST: 82 IU/L
  BUN: 6.4 mg/dL
  CRE: 0.2 mg/dL
  Ca: 11.2 mg/dL
  Cl: 107.6 meq/L
  DBIL: 0.008 mg/dL
  GLC: 184 mg/dL
  IP: 11.4 mg/dL
  K: 4.7 meq/L
  LDH: 49.8 IU/L
  Na: 144.2 meq/L
  PL: 125.8 mg/dL
  RALB: 2.5 g/dL
  TBIL: 0.064 mg/dL
  TC: 79 mg/dL
  TG: 45.6 mg/dL
  TP: 5.4 g/dL
  gamma-GTP: 1 IU/L
9 h
  TERMINAL_BW: 187.5 g
  APTT: 17.1 s
  Bas: 0%
  Eos: 0.8%
  Fbg: 248.8 mg/dL
  Hb: 12.8 g/dL
  Ht: 37.7%
  Lym: 74.4%
  MCH: 22 pg
  MCHC: 34%
  MCV: 64.7 fL
  Mono: 2.6%
  Neu: 21.2%
  PT: 12.4 s
  Plat: 117.7 x10_4/uL
  RBC: 583 x10_4/ul
  Ret: 10%
  WBC: 65.1 x10_2/uL
  KIDNEY_L: 0.8 g
  KIDNEY_R: 0.8 g
  KIDNEY_TOTAL: 1.6 g
  LIVER: 7.1 g
  A/G: 0.9
  ALP: 1707.4 IU/L
  ALT: 47 IU/L
  AST: 75.6 IU/L
  BUN: 10.6 mg/dL
  CRE: 0.1 mg/dL
  Ca: 11 mg/dL
  Cl: 107.4 meq/L
  DBIL: 0.008 mg/dL
  GLC: 201.2 mg/dL
  IP: 10.6 mg/dL
  K: 4.5 meq/L
  LDH: 51.4 IU/L
  Na: 144.2 meq/L
  PL: 111.8 mg/dL
  RALB: 2.5 g/dL
  TBIL: 0.064 mg/dL
  TC: 71.2 mg/dL
  TG: 32.4 mg/dL
  TP: 5.2 g/dL
  gamma-GTP: 1 IU/L
24 h
  TERMINAL_BW: 194.5 g
  APTT: 18.6 s
  Bas: 0%
  Eos: 1.2%
  Fbg: 242.4 mg/dL
  Hb: 13.1 g/dL
  Ht: 38.9%
  Lym: 78.4%
  MCH: 21.4 pg
  MCHC: 33.7%
  MCV: 63.6 fL
  Mono: 2.8%
  Neu: 17.4%
  PT: 12.6 s
  Plat: 115.8 x10_4/uL
  RBC: 612.6 x10_4/ul
  Ret: 9.4%
  WBC: 81.6 x10_2/uL
  KIDNEY_L: 0.8 g
  KIDNEY_R: 0.8 g
  KIDNEY_TOTAL: 1.6 g
  LIVER: 9.2 g
  A/G: 0.9
  ALP: 1854.6 IU/L
  ALT: 52 IU/L
  AST: 81.2 IU/L
  BUN: 15.6 mg/dL
  CRE: 0.2 mg/dL
  Ca: 11.4 mg/dL
  Cl: 108 meq/L
  DBIL: 0.016 mg/dL
  GLC: 189.8 mg/dL
  IP: 8 mg/dL
  K: 4.5 meq/L
  LDH: 98.4 IU/L
  Na: 143.6 meq/L
  PL: 136.2 mg/dL
  RALB: 2.6 g/dL
  TBIL: 0.064 mg/dL
  TC: 71.4 mg/dL
  TG: 85.4 mg/dL
  TP: 5.5 g/dL
  gamma-GTP: 1 IU/L

— ChEMBL document CHEMBL3885861, “Open TG-GATES”
